Structures are written as SMILES. Converted amounts (≈) assume the structure as drawn. Where a name gives a salt, the structure may show the parent alone.

Common to all, as to format: cell-based, Plasmodium falciparum
One assay concerns P. falciparum TM91C235. The experiment in a line: In vitro screening protocol I, [3H]-hypoxanthine incorporation, TM91C235. The following applies: In vitro screening protocol I, P. falciparum TM91C235; for IC50: Plasmodium falciparum, read-out: IC50 TM91C235. An excerpt: (§1) Agents Chemother. 27 (4) (1985) 525-530). The system was limited to the assessment of the intrinsic activity against the erythrocytic asexual life cycle (blood schizontocides). Two Plasmodium falciparum clones from CDC/Indochina III (W-2) and CDC/Sierra Leone I (D-6) (Oduola A M, Weatherly N F, Bowdre J H, Desjardins R E. Plasmodium falciparum: cloning by single-erythrocyte micromanipulation and heterogeneity in vitro. Exp Parasitol. 66 (1) (1988) 86-95) were used for all assays. TM91C235, a multiple drug resistant isolate from Thailand (Antimicrob. Agents Chemother. 46 (8) (2002) 2627 and Antimicrob. Agents Chemother. 43 (3) (1999) 598-602), was used for the prescreening assay. W-2 is resistant to chloroquine, quinine, and pyrimethamine and susceptible to mefloquine. D-6 tends to be more resistant to mefloquine and susceptible to chloroquine, quinine, and pyrimethamine. All documents cited in this paragraph are incorporated by reference in their entirety.
(§2) All parasites were maintained in continuous long term cultures in RPMI-1640 medium supplemented with 6% washed human A positive (A+)(erythrocytes, 25 mM Hepes, […], and 10% heat inactivated A+ human plasma or ALBUMAX® (lipid-rich bovine serum albumin; Invitrogen, Carlsbad, Calif.). All cultures and assays were conducted at 37° C. under an atmosphere of 5% CO2 and 5% O2, with a balance of N2.
(§3) The prescreening assay uses TM91C235 diluted at a 0.4% parasitemia in a 1% hematocrit in folic acid free and p-aminobenzoic acid free media RPMI-1640 and ALBUMAX®. […] The compound is further diluted in folate free (FF) culture medium with ALBUMAX® for the first initial starting concentration. The rest of the stock drug solution was kept at −70° C. The isolate was preexposed, in duplicate, at three concentrations (25,000 ng/ml, 2,500 ng/ml, and […]) of the test compound for 48 hr in a 96-well microtiter plate (MTP) using the BIOMEK® 2000 automated laboratory workstation. Each MTP contains chloroquine as control to assess the relative activity of the compound and to monitor the response of TM91C235.
(§4) After the preincubation, [^3H]-hypoxanthine was added to each well of the MTP. (The assay relies on the incorporation of radiolabeled hypoxanthine by the parasites, which indicates reproduction, and inhibition of isotope incorporation was attributed to activity of known or candidate antimalarial drugs). After 72 hours of total incubation time, the MTP were frozen to lyse the erythrocytes and parasites. The parasite DNA was recovered by harvesting the lysate onto glass-fiber filter plates using a Packard FilterMate™ Cell Harvester. The radioactivity was counted on a Packard TopCount™ microplate scintillation counter.
(§5) The serial dilution assay was conducted using the same assay conditions and stock solution of the compound used for the preliminary screen, described above. Both the D-6 and the W-2 clones were used. The compounds were diluted two-fold over 11 different concentration ranges with a starting concentration that was based on the preliminary screen. For each drug, the concentration response profile was determined and 50% inhibitory concentrations (IC50) were determined by using a non-linear, logistic dose response analysis program. […] For each assay, the IC50 for each clone was determined against the known antimalarials chloroquine and mefloquine. These control values established the compound's relative parasite susceptibility profile compared to known antimalarials. […]

The subject of assay [1] is P. falciparum W2 (CDC/Indochina III, W-2). In words: In vitro screening protocol I, [3H]-hypoxanthine incorporation, W2. The following applies: In vitro screening protocol I, P. falciparum W2; for IC50: Plasmodium falciparum, read-out: IC50 W2.
Source text: as §1, §2, §3, §4, §5

Assay [2] has as its system P. falciparum D6 (CDC/Sierra Leone I, D-6). In words: In vitro screening protocol I, [3H]-hypoxanthine incorporation, D6. The following applies: In vitro screening protocol I, P. falciparum D6; for IC50: Plasmodium falciparum, read-out: IC50 D6.
Source text: as §1, §2, §3, §4, §5

In the case of `CC[C@H]1OC(=O)[C@H](C)[C@@H](O)[C@H](C)[C@@H](O[C@@H]2O[C@H](C)C[C@H](N(C)C)[C@H]2O)[C@](C)(O)C[C@@H](C)CN(CCCNCc2ccncc2)[C@H](C)[C@@H](O)[C@]1(C)O` [Example 11, 9a-{3-[(Pyridine-4-yl-methyl)amino]propyl}-3-O-decladinosyl-9-deoxo-9-dihydro-9a-aza-9a-homoerythromycin A], the “IC50 TM91C235” value in the assay on P. falciparum TM91C235 is listed as “F (2800 < X ≦ 3500)”. The “IC50 W2” value in assay [1] was “C (200 < X ≦ 1000)”. In assay [2], the “IC50 D6” value was “G (3500 < X ≦ 5000)”.
Regarding `CC[C@H]1OC(=O)[C@H](C)[C@@H](O[C@H]2C[C@@](C)(OC)[C@@H](O)[C@H](C)O2)[C@H](C)[C@@H](O[C@@H]2O[C@H](C)C[C@H](N(C)C)[C@H]2O)[C@](C)(O)C[C@@H](C)CN(CCCNC(=O)CCc2ccccc2)[C@H](C)[C@@H](O)[C@]1(C)O` [Example 46, 9a-{3-[(3-Phenylpropanoyl)amino]propyl}-9a-aza-9-deoxo-9-dihydro-9a-homoerythromycin A], the “IC50 TM91C235” value with P. falciparum TM91C235 is on record as “C (200 < X ≦ 1000)”. In addition, in assay [1], the “IC50 W2” value is recorded as “C (200 < X ≦ 1000)”. Further, the “IC50 D6” value in assay [2] is recorded as “C (200 < X ≦ 1000)”.
The term IC50 denotes the concentration that inhibits the measured activity by half. Turning to `CC[C@H]1OC(=O)[C@H](C)[C@@H](O[C@H]2C[C@@](C)(OC)[C@@H](O)[C@H](C)O2)[C@H](C)[C@@H](O[C@@H]2O[C@H](C)C[C@H](N(C)C)[C@H]2O)[C@](C)(O)C[C@@H](C)CN(CCC(=O)NCCCc2ccccc2)[C@H](C)[C@@H](O)[C@]1(C)O` [Example 40], the half-inhibitory concentration (IC50) lay within 0.1 to 0.2 µg/mL (≈ 0.108 to 0.216 µM) with P. falciparum TM91C235, 0.1 to 0.2 µg/mL (≈ 0.108 to 0.216 µM) in assay [1] and 0.2 to 1 µg/mL (≈ 0.216 to 1.08 µM) in assay [2].
Take `CC[C@H]1OC(=O)[C@H](C)[C@@H](O[C@H]2C[C@@](C)(OC)[C@@H](O)[C@H](C)O2)[C@H](C)[C@@H](O[C@@H]2O[C@H](C)C[C@H](N(C)C)[C@H]2O)[C@](C)(O)C[C@@H](C)CN(CCCNC(=O)[C@H](C)c2ccc3cc(OC)ccc3c2)[C@H](C)[C@@H](O)[C@]1(C)O` [Example 32, 9a-[3-({(2S)-2-[6-(methyloxy)-naphthalen-2-yl]propanoyl}amino)propyl]-9a-aza-9-deoxo-9-dihydro-9a-homoerythromycin A Formiate Salt]: the IC50 with P. falciparum TM91C235 is < 0.1 µg/mL; in assay [1], 0.1 to 0.2 µg/mL; in assay [2], 0.2 to 1 µg/mL.
Turning to `CC[C@H]1OC(=O)[C@H](C)[C@@H](O[C@H]2C[C@@](C)(OC)[C@@H](O)[C@H](C)O2)[C@H](C)[C@@H](O[C@@H]2O[C@H](C)C[C@H](N(C)C)[C@H]2O)[C@](C)(O)C[C@@H](C)CN(CCCNCc2cnc3ccccc3c2)[C@H](C)[C@@H](O)[C@]1(C)O` [Example 4, 9a-{3-[(Quinolin-3-yl-methyl)amino]propyl}-9-deoxo-9-dihydro-9a-aza-9a-homoerythromycin A], the IC50 is < 0.1 µg/mL in the assay on P. falciparum TM91C235, < 0.1 µg/mL in assay [1] and 0.1 to 0.2 µg/mL (≈ 0.107 to 0.214 µM) in assay [2].
Consider `CC[C@H]1OC(=O)[C@H](C)[C@@H](O[C@H]2C[C@@](C)(OC)[C@@H](O)[C@H](C)O2)[C@H](C)[C@@H](O[C@@H]2O[C@H](C)C[C@H](N(C)C)[C@H]2O)[C@](C)(O)C[C@@H](C)CN(CCC(=O)N[C@@H](C)c2cccc3ccccc23)[C@H](C)[C@@H](O)[C@]1(C)O` [Example 42], for which the IC50 with P. falciparum TM91C235 was < 0.1 µg/mL; in assay [1] it was < 0.1 µg/mL; in assay [2] it was 0.1 to 0.2 µg/mL (≈ 0.104 to 0.208 µM).
As for `CC[C@H]1OC(=O)[C@H](C)[C@@H](O[C@H]2C[C@@](C)(OC)[C@@H](O)[C@H](C)O2)[C@H](C)[C@@H](O[C@@H]2O[C@H](C)C[C@H](N(C)C)[C@H]2O)[C@](C)(O)C[C@@H](C)CN(CCCNC(=O)CCCCc2ccccc2)[C@H](C)[C@@H](O)[C@]1(C)O` [Example 31, 9a-{3-[(5-Phenylpentanoyl)amino]propyl}-9a-aza-9-deoxo-9-dihydro-9a-homoerythromycin A Formiate Salt], the 50% inhibitory concentration (IC50) in the assay on P. falciparum TM91C235 was < 0.1 µg/mL; in assay [1], 0.1 to 0.2 µg/mL; in assay [2], 0.2 to 1 µg/mL.
`CC[C@H]1OC(=O)[C@H](C)[C@@H](O[C@H]2C[C@@](C)(OC)[C@@H](O)[C@H](C)O2)[C@H](C)[C@@H](O[C@@H]2O[C@H](C)C[C@H](N(C)C)[C@H]2O)[C@](C)(O)C[C@@H](C)CN(CCCNCc2ccc3ccccc3n2)[C@H](C)[C@@H](O)[C@]1(C)O` [Example 1, 9a-{3-[(Quinolin-2-yl-methyl)amino]propyl}-9-deoxo-9-dihydro-9a-aza-9a-homoerythromycin A]: the half-inhibitory concentration (IC50) in the assay on P. falciparum TM91C235 was < 0.1 µg/mL; in assay [1], < 0.1 µg/mL; in assay [2], 0.1 to 0.2 µg/mL (≈ 0.107 to 0.214 µM).
On to `CC[C@H]1OC(=O)[C@H](C)[C@@H](O)[C@H](C)[C@@H](O[C@@H]2O[C@H](C)C[C@H](N(C)C)[C@H]2O)[C@](C)(O)C[C@@H](C)CN(CCCNCc2cccnc2)[C@H](C)[C@@H](O)[C@]1(C)O` [Example 13, 9a-{3-[(Pyridine-3-yl-methyl)amino]propyl}-3-O-decladinosyl-9-deoxo-9-dihydro-9a-aza-9a-homoerythromycin A], for which the “IC50 TM91C235” value in the assay on P. falciparum TM91C235 is “D (1000 < X ≦ 2500)”. Also, in assay [1], the “IC50 W2” value is “C (200 < X ≦ 1000)”. In assay [2], the “IC50 D6” value is “G (3500 < X ≦ 5000)”.
Take `CC[C@H]1OC(=O)[C@H](C)[C@@H](O[C@H]2C[C@@](C)(OC)[C@@H](O)[C@H](C)O2)[C@H](C)[C@@H](O[C@@H]2O[C@H](C)C[C@H](NC)[C@H]2O)[C@](C)(O)C[C@@H](C)CN(CCCNc2ccnc3cc(Cl)ccc23)[C@H](C)[C@@H](O)[C@]1(C)O` [Example 21B, 9a-{3-[(7-Chloro-quinolin-4-yl)amino]propyl}-3′N-demethyl-9-deoxo-9-dihydro-9a-aza-9a-homoerythromycin A]: the half-inhibitory concentration (IC50) in the assay with P. falciparum TM91C235 was < 0.1 µg/mL; in assay [1] it was 0.1 to 0.2 µg/mL (≈ 0.106 to 0.213 µM); in assay [2] it was 0.1 to 0.2 µg/mL (≈ 0.106 to 0.213 µM).
For the compound `CC[C@H]1OC(=O)[C@H](C)[C@@H](O[C@H]2C[C@@](C)(OC)[C@@H](O)[C@H](C)O2)[C@H](C)[C@@H](O[C@@H]2O[C@H](C)C[C@H](N(C)C)[C@H]2O)[C@](C)(O)C[C@@H](C)CN(CCCNC(=O)CCc2ccccc2)[C@H](C)[C@@H](O)[C@]1(C)O` [Example 27, 9a-{3-[(3-Phenylpropanoyl)amino]propyl}-9a-aza-9-deoxo-9-dihydro-9a-homoerythromycin A Formiate Salt], the figures for the half-inhibitory concentration (IC50) (in the assay with P. falciparum TM91C235; in assay [1]; in assay [2]) were < 0.1 µg/mL, 0.2 to 1 µg/mL and 0.2 to 1 µg/mL, respectively.
For the compound `CC[C@H]1OC(=O)[C@H](C)[C@@H](O)[C@H](C)[C@@H](O)[C@](C)(O)C[C@@H](C)CN(CCCNCc2ccc3ccccc3n2)[C@H](C)[C@@H](O)[C@]1(C)O` [Example 3, 9a-{3-[(Quinolin-2-yl-methyl)amino]propyl}-3-O-decladinosyl-5-O-dedesosaminyl-9-deoxo-9-dihydro-9a-aza-9a-homoerythromycin A], the results for the IC50 (in the assay on P. falciparum TM91C235; in assay [1]; in assay [2]) were 1 to 2.5 µg/mL (≈ 1.62 to 4.05 µM), 0.2 to 1 µg/mL (≈ 0.324 to 1.62 µM) and 3.5 to 5 µg/mL (≈ 5.67 to 8.09 µM), respectively.
For `CC[C@H]1OC(=O)[C@H](C)[C@@H](O[C@H]2C[C@@](C)(OC)[C@@H](O)[C@H](C)O2)[C@H](C)[C@@H](O[C@@H]2O[C@H](C)C[C@H](N(C)C)[C@H]2O)[C@](C)(O)C[C@@H](C)CN(CCC(=O)NCc2ccc3ccccc3c2)[C@H](C)[C@@H](O)[C@]1(C)O` [Example 43], the IC50 in the assay on P. falciparum TM91C235 was < 0.1 µg/mL; in assay [1], < 0.1 µg/mL; in assay [2] it was 0.1 to 0.2 µg/mL (≈ 0.106 to 0.211 µM).

The values are drawn from patent US20090105301A1, “9A-SUBSTITUTED AZALIDES FOR THE TREATMENT OF MALARIA” (priority 2006, published 2009).
